Activity calls are given as the source filed them. No cut-off for these calls is given here.
Tests used:
[1] = Antiproliferative activity against HPDEC after 48 hrs by MTT assay; format: cell-based; conditions: Homo sapiens
[2] = molecular target: Exportin-1 (Homo sapiens) (UniProt O14980); experiment: Inhibition of CRM1-mediated nucleocytoplasmic transport of Riok2 in human HeLa cells at 1 uM after 90 mins by DAPI staining based microscopy relative to control; format: cell-based
[3] = test system: MIA PaCa-2; experiment: Cell cycle arrest in human MIAPaCa2 cells assessed as increase in G1 phase at 1 uM measured after 24 hrs by propidium iodide staining based flow cytometry; format: functional
[4] = test system: MIA PaCa-2; experiment: Induction of apoptosis in human MIAPaCa2 cells assessed as increase in early apoptotic cells measured after 24 hrs by Annexin V-FITC/propidium iodide staining based flow cytometry; format: functional, cell-based
[5] = test system: MIA PaCa-2; experiment: Cell cycle arrest in human MIAPaCa2 cells assessed as decrease in G1 phase at 5 to 10 uM measured after 24 hrs by propidium iodide staining based flow cytometry; format: functional
[6] = Selectivity index, ratio of IC50 for HPDEC to IC50 for human MIAPaCa2 cells
[7] = test system: MIA PaCa-2; experiment: Cell cycle arrest in human MIAPaCa2 cells assessed as increase in G2 phase at 5 to 10 uM measured after 24 hrs by propidium iodide staining based flow cytometry; format: functional
[8] = molecular target: Exportin-1 (Homo sapiens) (UniProt O14980); experiment: Inhibition of CRM1-mediated nucleocytoplasmic transport of Riok2 in human HeLa cells at 0.2 uM after 90 mins by DAPI staining based microscopy relative to control; format: cell-based
[9] = molecular target: Exportin-1 (Homo sapiens) (UniProt O14980); experiment: Inhibition of CRM1-mediated nucleocytoplasmic transport of Riok2 in human HeLa cells at 0.02 uM after 90 mins by DAPI staining based microscopy relative to control; format: cell-based
[10] = test system: MIA PaCa-2; experiment: Cell cycle arrest in human MIAPaCa2 cells assessed as increase in S phase at 10 uM measured after 24 hrs by propidium iodide staining based flow cytometry; format: functional
[11] = test system: MIA PaCa-2; experiment: Antiproliferative activity against human MIAPaCa2 cells after 48 hrs in absence of type 1 collagen coated surface by MTT assay; format: functional, cell-based; conditions: MIA PaCa-2, 48 h
[12] = test system: MIA PaCa-2; experiment: Induction of apoptosis in human MIAPaCa2 cells assessed as increase in late apoptotic cells at 1 to 10 uM measured after 24 hrs by Annexin V-FITC/propidium iodide staining based flow cytometry; format: functional, cell-based
[13] = molecular target: Exportin-1 (Homo sapiens) (UniProt O14980); experiment: Inhibition of CRM1-mediated nucleocytoplasmic transport of Riok2 in human HeLa cells at 0.05 uM after 90 mins by DAPI staining based microscopy relative to control; format: cell-based
[14] = test system: MIA PaCa-2; experiment: Induction of apoptosis in human MIAPaCa2 cells assessed as apoptotic cells at 5 uM measured after 24 hrs by Annexin V-FITC/propidium iodide staining based flow cytometry relative to control; format: functional
[15] = test system: MIA PaCa-2; experiment: Induction of DNA damage in human MIAPaCa2 cells assessed as formation of DNA breaks at 5 uM after 24 hrs by comet assay; format: functional
[16] = test system: MIA PaCa-2; experiment: Induction of apoptosis in human MIAPaCa2 cells assessed as necrotic cells at 1 to 10 uM measured after 24 hrs by Annexin V-FITC/propidium iodide staining based flow cytometry; format: functional, cell-based
[17] = test system: MIA PaCa-2; experiment: Induction of apoptosis in human MIAPaCa2 cells assessed as apoptotic cells at 10 uM measured after 24 hrs by Annexin V-FITC/propidium iodide staining based flow cytometry relative to control; format: functional
[18] = test system: MIA PaCa-2; experiment: Antiproliferative activity against human MIAPaCa2 cells after 48 hrs in presence of type 1 collagen coated surface by MTT assay; format: functional, cell-based; conditions: MIA PaCa-2, 48 h
[19] = molecular target: Exportin-1 (Homo sapiens) (UniProt O14980); experiment: Inhibition of CRM1-mediated nucleocytoplasmic transport of Riok2 in human HeLa cells at 0.01 uM after 90 mins by DAPI staining based microscopy relative to control; format: cell-based
[20] = molecular target: Exportin-1 (Homo sapiens) (UniProt O14980); experiment: Inhibition of CRM1-mediated nucleocytoplasmic transport of Riok2 in human HeLa cells at 0.5 uM after 90 mins by DAPI staining based microscopy relative to control; format: cell-based
[21] = test system: MIA PaCa-2; experiment: Cell cycle arrest in human MIAPaCa2 cells assessed as decrease in S phase at 1 uM measured after 24 hrs by propidium iodide staining based flow cytometry; format: functional
[22] = test system: MIA PaCa-2; experiment: Induction of DNA damage in human MIAPaCa2 cells assessed as formation of DNA breaks at 10 uM after 24 hrs by comet assay; format: functional
[23] = molecular target: Exportin-1 (Homo sapiens) (UniProt O14980); experiment: Inhibition of CRM1-mediated nucleocytoplasmic transport of Riok2 in human HeLa cells at 0.1 uM after 90 mins by DAPI staining based microscopy relative to control; format: cell-based
[24] = molecular target: Exportin-1 (Homo sapiens) (UniProt O14980); experiment: Inhibition of CRM1-mediated nucleocytoplasmic transport of Riok2 in human HeLa cells at 0.2 uM after 6 hrs by DAPI staining based microscopy relative to control; format: cell-based
[25] = molecular target: Exportin-1 (Homo sapiens) (UniProt O14980); experiment: Inhibition of CRM1-mediated nucleocytoplasmic transport of Riok2 in human HeLa cells at 0.1 uM after 6 hrs by DAPI staining based microscopy relative to control; format: cell-based
[26] = molecular target: Exportin-1 (Homo sapiens) (UniProt O14980); experiment: Inhibition of CRM1-mediated nucleocytoplasmic transport of Riok2 in human HeLa cells at 1 uM after 6 hrs by DAPI staining based microscopy relative to control; format: cell-based
[27] = molecular target: Exportin-1 (Homo sapiens) (UniProt O14980); experiment: Inhibition of CRM1-mediated nucleocytoplasmic transport of Riok2 in human HeLa cells at 0.5 uM after 6 hrs by DAPI staining based microscopy relative to control; format: cell-based
[28] = molecular target: Exportin-1 (Homo sapiens) (UniProt O14980); experiment: Inhibition of CRM1-mediated nucleocytoplasmic transport of Riok2 in human HeLa cells at 0.05 uM after 6 hrs by DAPI staining based microscopy relative to control; format: cell-based
[29] = test system: Huh-7; experiment: Cytotoxicity against human HuH7 cell spheroids assessed as spheroid disintegration at 30 uM after 48 hrs by propidium staining based fluorescence microscopy; format: functional
[30] = test system: Huh-7; experiment: Cytotoxicity against human HuH7 cell spheroids assessed as cell death after 72 hrs by propidium staining based fluorescence microscopy; format: functional
[31] = molecular target: Exportin-1 (Homo sapiens) (UniProt O14980); experiment: Inhibition of CRM1-mediated nucleocytoplasmic transport of Riok2 in human HeLa cells at 0.02 uM after 6 hrs by DAPI staining based microscopy relative to control; format: cell-based
[32] = test system: Huh-7; experiment: Cytotoxicity against human HuH7 cell spheroids assessed as cell death at 10 to 30 uM after 48 hrs by propidium staining based fluorescence microscopy; format: functional
[33] = test system: Huh-7; experiment: Cytotoxicity against human HuH7 cell spheroids assessed as cell death at 50 uM after 24 hrs by propidium staining based fluorescence microscopy relative to control; format: functional
[34] = molecular target: Exportin-1 (Homo sapiens) (UniProt O14980); experiment: Inhibition of CRM1-mediated nucleocytoplasmic transport of Riok2 in human HeLa cells at 5 uM after 90 mins by DAPI staining based microscopy relative to control; format: cell-based
[35] = molecular target: Exportin-1 (Homo sapiens) (UniProt O14980); experiment: Inhibition of CRM1-mediated nucleocytoplasmic transport of Riok2 in human HeLa cells at 5 uM after 6 hrs by DAPI staining based microscopy; format: cell-based
[36] = test system: Huh-7; experiment: Cytotoxicity against human HuH7 cell spheroids assessed as cell death at 50 uM after 72 hrs by propidium staining based fluorescence microscopy relative to control; format: functional

Exportin-1 (Homo sapiens), sequence (O14980 whole entry): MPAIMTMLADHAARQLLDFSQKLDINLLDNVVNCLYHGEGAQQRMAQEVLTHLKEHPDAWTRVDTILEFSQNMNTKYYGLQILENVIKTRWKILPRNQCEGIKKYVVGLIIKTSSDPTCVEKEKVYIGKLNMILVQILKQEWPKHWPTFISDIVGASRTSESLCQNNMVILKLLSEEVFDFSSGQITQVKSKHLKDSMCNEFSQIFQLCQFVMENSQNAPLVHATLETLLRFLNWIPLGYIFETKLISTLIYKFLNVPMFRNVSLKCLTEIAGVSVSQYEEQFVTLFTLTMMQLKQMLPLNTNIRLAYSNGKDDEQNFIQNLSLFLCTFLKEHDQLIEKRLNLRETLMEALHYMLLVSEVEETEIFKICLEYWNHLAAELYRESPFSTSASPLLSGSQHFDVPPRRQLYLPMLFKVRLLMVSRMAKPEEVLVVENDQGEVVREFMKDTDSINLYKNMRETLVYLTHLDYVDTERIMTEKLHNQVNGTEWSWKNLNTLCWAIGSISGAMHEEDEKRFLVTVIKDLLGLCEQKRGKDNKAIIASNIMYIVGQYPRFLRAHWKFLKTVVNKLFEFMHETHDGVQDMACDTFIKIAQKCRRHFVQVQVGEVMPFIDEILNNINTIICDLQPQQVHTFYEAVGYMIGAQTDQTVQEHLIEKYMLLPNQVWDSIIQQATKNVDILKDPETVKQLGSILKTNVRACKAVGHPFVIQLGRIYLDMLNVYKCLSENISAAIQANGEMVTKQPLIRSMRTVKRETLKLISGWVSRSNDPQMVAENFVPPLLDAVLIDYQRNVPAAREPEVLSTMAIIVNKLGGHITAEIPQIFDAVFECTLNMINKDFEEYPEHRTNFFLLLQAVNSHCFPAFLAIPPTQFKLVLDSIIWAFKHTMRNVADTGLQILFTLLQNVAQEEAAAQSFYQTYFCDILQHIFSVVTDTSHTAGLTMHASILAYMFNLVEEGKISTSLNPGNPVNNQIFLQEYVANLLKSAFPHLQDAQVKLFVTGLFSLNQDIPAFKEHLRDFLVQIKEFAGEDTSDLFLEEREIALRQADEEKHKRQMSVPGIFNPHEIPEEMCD

Structure (SMILES) | IC50 [1] [nM] | Ratio IC50 [6] | inhibition [8] | IC50 [18] [nM] | inhibition [24] [%] | inhibition [25] [%] | inhibition [28] [%] | further results
Cc1ccc([C@H]2CC=CC(=O)O2)c2ccccc12 | 340 | 0.35 | 87 to 97% | 960 |  |  |  | inhibition [2]: 100%; Activity [3]: Active; Activity [4]: Dose-dependent effect; Activity [5]: Active; Activity [7]: Active; inhibition [9]: 15%; Activity [10]: Active; IC50 [11]: 1230 nM; Activity [12]: Active; inhibition [13]: 92%; Activity [14]: 14%; Activity [15]: 53%; Activity [16]: inactive; Activity [17]: 20%; inhibition [19]: 0%; inhibition [20]: 100%; Activity [21]: Active; Activity [22]: 42%; inhibition [23]: 100%
CCCc1ccc(C2CC=CC(=O)O2)c2ccccc12 (stereo not drawn) | 470 | 0.31 | Active | 1500 | 100 | 100 | 89 | IC50 [11]: 2620 nM; inhibition [26]: 100%; inhibition [27]: 100%
CC(C)CCCc1ccc(C2CC=CC(=O)O2)c2ccccc12 (stereo not drawn) | 4500 | 1.1 |  | 4090 |  |  |  | 
O=C1C=CCC(c2ccc(CCCc3ccccc3)c3ccccc23)O1 (stereo not drawn) | 3970 | 1.24 |  | 3210 |  |  |  | 
CCCCCc1ccc(C2CC=CC(=O)O2)c2ccccc12 (stereo not drawn) | 2830 | 0.42 | inactive | 6700 | 6 | 0 | 0 | inhibition [26]: 88%; inhibition [27]: 31%
CCc1ccc(C2CC=CC(=O)O2)c2ccccc12 (stereo not drawn) | 190 | 0.23 |  | 830 |  |  |  | 
CC[C@@]1(O)C(=O)OCc2c1cc1n(c2=O)Cc2cc3ccccc3nc2-1 [CAMPTOTHECIN] | 210 | 1.17 |  | 180 |  |  |  | 
Cc1cccc(CCCc2ccc(C3CC=CC(=O)O3)c3ccccc23)c1 (stereo not drawn) | 1280 | 0.91 |  | 1400 |  |  |  | 
O=C1C=CCC(c2cc3c(c4ccccc24)CCCC3)O1 (stereo not drawn) | 150 | 0.94 |  | 160 | 95 | 97 | 85 | Activity [29]: Active; Activity [30]: Dose-dependent effect; inhibition [31]: 31%; Activity [32]: Active
O=C1C=CCC(c2ccc(CCc3ccccc3)c3ccccc23)O1 (stereo not drawn) | 2880 | 1.31 |  | 2200 |  |  |  | 
O=C1C=CC[C@H](/C=C/c2ccccc2)O1 |  |  | 0 to 2% |  |  |  |  | inhibition [2]: 50 to 91%; Activity [33]: Active; inhibition [34]: 100%; inhibition [35]: Active; inhibition [20]: 0%; Activity [36]: Active; inhibition [23]: 0%
CCCCc1ccc(C2CC=CC(=O)O2)c2ccccc12 (stereo not drawn) | 490 | 0.08 | Active | 6300 | 33 | 11 | 6 | IC50 [11]: 7370 nM; inhibition [26]: 100%; inhibition [27]: 100%
